# From patent publication US20040096815A1, “Method of identifying an eventual modification of at least one biological parameter making use of living cells which are subjected to a stress and living cells which are not subjected to this same stress” (COLETICA, priority 2002, published 2004)
# Like-named read-outs stand apart in the source and are kept apart here.
# Legend:
# [1] = system: reconstructed gingival mucous membrane epithelia; test: mRNA Expression Array on reconstructed gingival mucous membrane epithelia treated with irritant/sensitizing agents or actives; assay type: cell-based; settings: (treated/non-stressed)x100; 20 μl per epithelium 1 h, then 24 h; SLS 5%, LPS 1000 U/ml, Prednisolone 10 mM, Inhipase 3%
# Description: 1 to 2.10^6 epithelial cells of gingival mucous membrane called <<reference gingival mucous membrane epithelia cells>> (gingival biopsy, Passage 3 (3rd amplification by trypsination)), extracted as described in Example 1, are sown in Boyden chamber-type inserts (membrane of porosity 0.4 μm and diameter 10 mm—fibroblast nutrient under layer), in a DMEM-Glutamax/Ham F-12 (ratio 3/1 v/v) culture medium supplemented with 10% of Hyclone II calf serum, with ascorbic acid-2-phosphate at a final concentration of 1 millimolar, with EGF at a final concentration of 10 ng/mL, with hydrocortisone at a final concentration of 0.4 micrograms/milliliter, with umulin at a final concentration of 0.12 IU/milliliter, with isuprel at a final concentration of 0.4 micrograms/milliliter, with triiodothyronine at a final concentration of 2.10^−9 molar, with adenine at a final concentration of 24.3 micrograms/milliliter, with penicillin at a final concentration of 100 IU/milliliter, with amphotericin B at a final concentration of 1 microgram/milliliter, and with gentamycin at a final concentration of 20 micrograms/milliliter, and for a period of culture by immersion of 3 to 8 days.
# The cultures of epithelial cells are then maintained in immersion for 12 to 18 days in the same culture medium as that used for the immersion culture, except the percentage of calf serum which is lowered by 10% to 1%.
# At the end of experimentation, the medium is eliminated and replaced with PBS pH 7.4, and the reconstructed epithelia Which are present in the inserts are stressed by various potentially irritant or sensitizing agents, at the rate of 20 μl per epithelium and for one hour: 5% sodium lauryl sulfate (SLS), Lipopolysaccharide (LPS) 1000 U/ml, an anti-inflammatory agent Prednisolone 10 mM (Sigma) and an active Inhipase® 3% (extract of the root of pueraria lobata, Coletica) also at the rate of 20 μl per epithelium, for 1 hour. The agents applied on the reconstructed epithelia are then eliminated and then the reconstructed epithelia are incubated for 24 additional hours in immersion medium without calf serum. Certain reconstructed epithelia are analyzed in terms of cell viability by a test with MTT (methylthiazoletetrazolium). Other reconstructed epithelia are scraped off and taken up into Tri Reagent® (T9424 Sigma, St Louis USA) and then extracted with chloroform. After centrifugation at 12,000 g for 15 minutes at 4° C., the RNAs are found in the upper layer.
# The determination of the mRNAs of the epithelia is made by Expression Array (R&D System), according to the protocol defined by the supplier.
# [2] = system: pigmented reconstructed skins; test: Interleukin secretion (Fluorokine MAP) of pigmented reconstructed skins under repeated solar irradiation with anti-oxidant actives; assay type: cell-based; settings: for restoring cell viability and synthesis of pro-inflammatory interleukins after solar irradiation: actives at 3% in a cosmetic formulation; for IL1 beta secretion (Fluorokine MAP) / IL6 secretion (Fluorokine MAP) / IL8 secretion (Fluorokine MAP) / TNF alpha secretion (Fluorokine MAP): solar irradiation 561 KJ/m^2 twice per week for two weeks, 8 μl cosmetic formulation with active at 3%, 10 days
# Method: The reconstructed dermis comprising cells called <<stressed cells>> or <<reference cells>> are then incubated in a medium without serum (FBM, Promocell) for 24 hours. The cell viability in the matrices is evaluated by a test with MTT (methylthiazoletetrazolium) and is expressed in percentage of the non-irradiated control. The media are collected, centrifuged, and the cytokines content is determined by the Fluorokine MAP kit (R&D Systems). Briefly, 50 μl of standards or of samples are pipetted into identified wells. 50 μl of microparticles immobilizing specific antibodies of different cytokines are added into the wells as a function of a pre-defined plate plan. After one hour of incubation under orbital agitation, and elimination of the non-fixed substances by washing, labeled antibodies which are specific of different cytokines are added into the wells and are incubated for 2 hours under orbital agitation. After washing, the microparticles are suspended in washing buffer, are agitated for 1 minute under orbital agitation. The reading is carried out immediately on a Luminex 100 Analyser (R&D Systems). The contents of the different cytokines which are present in the media analyzed are determined by virtue of calibration ranges made with highly purified recombinant human cytokines. This technique enables an experimentation to analyze the cellular secretion of various cytokines (IL-1β, IL-2, IL-4, IL-6, IL-8, IL-10, TNFα, GM-CSF, G-CSF, VEGF, bFGF, G-CSF, IFNγ).
# The cells extracted are obtained from a mammary biopsy non-exposed to the stress studied. 400,000 fibroblasts, amplified until passage 5 (5th amplification by trypsination) as described in Example 1, are sown on dermal substrates based on surfaced sponges of collagen, in a DMEM-Glutamax culture medium supplemented with 10% of hyclone II calf serum, with ascorbic acid-2-phosphate at a final concentration of 1 millimolar, with EGF or Epidermal growth factor at a final concentration of 10 ng/mL, with penicillin at a final concentration of 100 IU/milliliter, with amphotericin B at a final concentration of 1 microgram/milliliter, and with gentamycin at a final concentration of 20 micrograms/milliliter, and for a period of culture of 14 days.
# Then, 400,000 keratinocytes and 10,000 melanocytes, amplified until passage 2 (2nd amplification by trypsination) as described in Example 1, are sown on the dermal equivalents in a DMEM-Glutamax/Ham F-12 (ratio 3/1 v/v) culture medium supplemented with 10% of Hyclone II calf serum, with ascorbic acid-2-phosphate at a final concentration of 1 millimolar, with EGF at a final concentration of 10 ng/mL, with hydrocortisone at a final concentration of 0.4 micrograms/milliliter, with umulin at a final concentration of 0.12 IU/milliliter, with isuprel at a final concentration of 0.4 micrograms/milliliter, with triiodothyronine at a final concentration of 2.10^−9 molar, with adenine at a final concentration of 24.3 micrograms/milliliter, with penicillin at a final concentration of 100 IU/milliliter, with amphotericin B at a final concentration of 1 microgram/milliliter, and with gentamycin at a final concentration of 20 micrograms/milliliter, and for a period of immersion culture of 7 days.
# The cultures are then placed at the air-liquid interface for 14 days in the same culture medium as that used for the immersion culture, except the calf serum, the hydrocortisone, the isuprel, the triiodothyronine and the umulin.
# Twice per week and for two weeks, the immersion medium is eliminated and replaced by PBS at pH 7.4. Certain pigmented reconstructed skins present in the inserts are preserved at ambient temperature; this model comprises cells which are called “reference cells”. Other pigmented reconstructed skins present in the inserts are irradiated at 561 KJ/m^2 (corresponding to an average hour of exposure in Central Europe) with the aid of a solar irradiator Suntest CPS+ (ATLAS); this model comprises cells which are called “stressed cells”.
# reconstructed skins = system: reconstructed skins
# Method: Reconstructed skins are made according to the protocol described in Example 6.
# The UVB irradiation at the rate of 50 mJ/cm^2 is made for half the samples comprising <> cells. The other samples are preserved at ambient temperature under the same conditions, and constitute samples comprising <> cells.
# At the end of experimentation, the content of tropoelastin mRNA, collagen of type I and collagen of type III is evaluated by a real time RT-PCR technique. For this, couples of primers enabling the amplification of specific fragments of tropoelastin, of collagen of type I and of collagen of type III (sense 18/antisense 19 and sense 18/antisense 20, respectively) and actin sequence primers (541 pairs of bases) were used. After extraction in TriReagent® (Sigma) and purification of the RNAs according to the protocol of the supplier, the reactions of RT-PCR (Reverse Polymerase Transcription Chain reactions) are carried out by quantitative real time RT-PCR with the aid of the <<Opticon>> system (MJ Research).
# The reaction mixture (50 μl) introduced into the well is the following, for each sample:
# 10 μl of RNA at the concentration of 5 ng/μl.
# The primers of the various labelers used
# Reaction mixture (Qiagen-25 μl 2×QuantiTect SYBR Green RT-PCR master mix containing 5 mM MgCl2+0.5 μl QuantiTect RT mix), the labeler SYBR Green I inserting itself in the DNA double strand during elongation step).
# Reverse transcription: 30 min at 50° C.,
# PCR reactions: [15 sec at 94° C., 30 sec at 60° C. and 30 sec at 72° C.], 50 cycles.
# The absence of contamination and the purity of the products amplified are verified by the melting curves of the amplified PCR products. The products having a double peak or an abnormal melting temperature are eliminated.
# The incorporation of fluorescence in the amplified DNA was evaluated continuously during the PCR cycles. This system enables obtaining fluorescence measurement curves as a function of the number of PCR cycles and thus to evaluate a relative quantity of amplified DNA.
# In order to take account of the:cell population present in the reconstructed skins, all the results were attributed to the signal <>, used as housekeeping gene.
# According to the experimentation, the measurement threshold of the C(T) (=cycle threshold) is fixed for T between 0.05 and 0.01 and then an arbitrary unit of measurement is calculated for each gene according to the formula:
# Sgene <>=10^7X(½)^C(T)gene <<X>>
# C(T)gene <> signifying the measurement threshold of the C(T) (Cycle Threshold) of the gene <>.
# The values of the genes of interest are attributed to the signal <> by calculation of the ratio:
# These ratios are compared between the treated and non-treated samples.
# [3] = UVB 50 mJ/cm^2, then 24 h with active at 1%
# [4] = UVB 50 mJ/cm^2, then 24 h with active at 3%
Compound,"IL1α mRNA, factor of variation with respect to the non-stressed control [1]","IL1β mRNA, factor of variation with respect to the non-stressed control [1]","IL6 mRNA, factor of variation with respect to the non-stressed control [1]","IL7 mRNA, factor of variation with respect to the non-stressed control [1]","IL8 mRNA, factor of variation with respect to the non-stressed control [1]","IL10 mRNA, factor of variation with respect to the non-stressed control [1]","IL11 mRNA, factor of variation with respect to the non-stressed control [1]","IL12 mRNA, factor of variation with respect to the non-stressed control [1]","IL15 mRNA, factor of variation with respect to the non-stressed control [1]","IL-1R AcP mRNA, factor of variation with respect to the non-stressed control [1]","IL-1RI mRNA, factor of variation with respect to the non-stressed control [1]","IL-1RII mRNA, factor of variation with respect to the non-stressed control [1]","IL-1ra mRNA, factor of variation with respect to the non-stressed control [1]","PLA2 mRNA, factor of variation with respect to the non-stressed control [1]","TNFα mRNA, factor of variation with respect to the non-stressed control [1]",restoring cell viability and synthesis of pro-inflammatory interleukins after solar irradiation [2],IL1 beta secretion (Fluorokine MAP) [2] [pg/mL],IL6 secretion (Fluorokine MAP) [2] [pg/mL],IL8 secretion (Fluorokine MAP) [2] [pg/mL],TNF alpha secretion (Fluorokine MAP) [2] [pg/mL],also measured
C[C@]12C=CC(=O)C=C1CC[C@@H]1[C@@H]2[C@@H](O)C[C@@]2(C)[C@H]1CC[C@]2(O)C(=O)CO [Prednisolone],62,75,81,102,105,152,101,67,99,95,83,88,112,93,67,–,–,–,–,–,–
"CCCCCCCCCCCCOS(=O)(=O)[O-].[Na+] [SLS, sodium lauryl sulfate]",241,114,163,127,183,75,112,132,147,102,154,137,82,102,213,–,–,–,–,–,–
Hesperitine Laurate [Flavagrum ®],–,–,–,–,–,–,–,–,–,–,–,–,–,–,–,have shown an effectiveness capable of tending to restoring the reference level for these two parameters,125,452,312,105,–
Quercitine Caprylate [Flavenger ®],–,–,–,–,–,–,–,–,–,–,–,–,–,–,–,have shown an effectiveness capable of tending to restoring the reference level for these two parameters,97,426,294,89,"limiting the UVB-induced increase in RNAs of collagen type I, type III and elastin (reconstructed skins; 1 and 3%): enables limiting the effects of the UVB stress induced by restoring, in a dose-dependent manner, the synthesis of these molecules; Collagen I mRNA, ratio R = Sgene/Sactin (reconstructed skins; [3]): 0.94; Collagen III mRNA, ratio R = Sgene/Sactin (reconstructed skins; [3]): 1.37; Elastin mRNA, ratio R = Sgene/Sactin (reconstructed skins; [3]): 4.87; Collagen I mRNA, ratio R = Sgene/Sactin (reconstructed skins; [4]): 0.92; Collagen III mRNA, ratio R = Sgene/Sactin (reconstructed skins; [4]): 1.26; Elastin mRNA, ratio R = Sgene/Sactin (reconstructed skins; [4]): 4.61"
